For assay [1], the target named is T1, purine nucleoside phosphorylase (hPNP) (Homo sapiens, UniProt P00491).
T1 sequence (P00491 1-289): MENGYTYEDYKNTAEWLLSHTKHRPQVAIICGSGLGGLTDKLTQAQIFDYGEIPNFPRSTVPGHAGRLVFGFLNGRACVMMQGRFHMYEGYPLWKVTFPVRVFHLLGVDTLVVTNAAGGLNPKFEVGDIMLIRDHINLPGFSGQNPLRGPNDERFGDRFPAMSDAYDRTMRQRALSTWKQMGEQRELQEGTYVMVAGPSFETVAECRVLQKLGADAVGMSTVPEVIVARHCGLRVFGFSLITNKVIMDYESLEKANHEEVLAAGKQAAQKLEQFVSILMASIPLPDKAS
Kind of assay: Enzyme-coupled SPRINT assay (inosine to hypoxanthine, guanine riboswitch xpt/pbuE*6U). The format is biochemical. The text has this: As part of the human purine metabolism, the enzyme purine nucleoside phosphorylase (hPNP) can catalyze the phosphorylation of the ribose moiety of various purines and thereby remove the sugar from the nucleobase. The conversion of deoxyguanosine to deoxyguanine by hPNP can be inhibited with nucleoside analogs such as Immucillin-H (forodesine) which leads to accumulation of deoxyguanosine and consequent apoptosis in activated T-cells. Therefore, hPNP is an important drug target for the treatment for example, of leukemia, arthritis, multiple sclerosis and transplant rejection.
In these systems, the conversion of inosine to hypoxanthine via hPNP was coupled to the SPRINT reaction in a one-batch buffer system using the guanine riboswitch xpt/pbuE*6U (FIG. 9D).

Assay [2] deals with zinc-responsive transcription factor smtB (Synechococcus elongatus, UniProt P30340). Kind of assay: biochemical. Here is the method: In other exemplary methods, reactions with allosteric transcription factors (aTFs), ROSALIND reagent buffer (10× buffer containing, for assays contemplated herein, but not limited to: 400 mM Tris-HCl, pH 8.0, 200 mM NaCl, 20 mM spermidine, 100 mM DTT and 80 mM MgCl2) were used. The buffer was prepared fresh or stored as single-use aliquots at −80° C. […] The final concentration of the aTF monomers was either 2.5 μM tetR or 10 μM smtB. The master mix was incubated for 15 minutes at 37° C. which allows the aTFs to bind to the operator sequence.
zinc-responsive transcription factor smtB, sequence (P30340 whole entry): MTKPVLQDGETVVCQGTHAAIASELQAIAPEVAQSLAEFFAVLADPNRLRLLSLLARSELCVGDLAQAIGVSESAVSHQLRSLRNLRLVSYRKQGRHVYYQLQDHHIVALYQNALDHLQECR
In another exemplary method, bacterial transcription can be regulated by allosteric transcription factors (aTFs), such as activators or repressors, which have previously been used for small molecule detection. Another system (“ROSALIND”) enabled rapid detection of compounds via aTFs. […] The ROSALIND buffer system differs from the SPRINT or SHERLOCK buffer. Therefore, it was tested whether aTF-based ROSALIND reactions could be integrated with the Cas13a-based detection method. To simplify the system, the inorganic pyrophosphatase (IPPase) enzyme was first removed from the ROSALIND system. IPPase was used in transcription reactions to degrade pyrophosphate which was a reaction product of the RNA polymerase and can inhibit the reaction. […] Adaptions included reducing the concentrations of rNTP from 2.85 mM to 40 μM, DNA template from 25 to 15 nM, and T7 RNAP from 10 to 6.7 ng/μL.
The responses of the de-repressors tetR and smtB were measured with SPRINT.

The test system of assay [3] is guanine riboswitch xpt/pbuE*6U. Nature of the assay: SPRINT compound screen on guanine riboswitch. The conditions noted are these: 10 μM and 1 mM for most compounds, solvent signal subtracted, FIG. 9A. The format is biochemical. The protocol:
Briefly, the transcriptional response of the guanine riboswitch xpt/pbuE*6U to 30 different compounds was measured at two different concentrations each (FIG. 9A and FIG. 10). The concentrations used were 10 μM and 1 mM for most compounds. The signal that was obtained from control experiments with the solvents DMSO or water was subtracted from all values.

The subject of assay [4] is SPRINT assay without riboswitch (constitutively transcribed Cas13a target). Nature of the assay: SPRINT control screen with constitutive promoter template (PAINS identification). The conditions noted are these: constitutive promoter template, FIG. 9B.
Protocol: The master mix was gently mixed by pipetting up and down and incubated at 37° C. for 15 minutes to allow binding of crRNA to Cas13a protein and the microwell plate was prepared by adding 3 μL of 10× ligand to the wells. The reaction was initiated by addition of rNTPs to the master mix to a concentration of 20 μM and then 27 μL of the complete master mix were added to each well and pipetted up and down to mix with the ligand in the wells. The plate was covered with an optical adhesive film to prevent evaporation of the sample while taking fluorescence measurements in a plate reader that was preheated to 37° C.
Assay [5] deals with flavin mononucleotide (FMN) riboswitch ribD/pbuE*7U. Nature of the assay: SPRINT assay with FMN riboswitch. The format is biochemical, B. subtilis. Conditions: 10 mM MgCl2, FIG. 4B. The protocol:
(§1) SPRINT reactions. Pentauridine RNA oligonucleotides were labeled with carboxyfluorescein (FAM) or TEX 615 at the 5′-end and with Iowa Black FQ at the 3′-end. Fluorescence measurements were taken at wavelengths 490/525 nm (excitation/emission) when the FAM fluorophore was used. In reactions with flavin-containing ligands, TEX-labeled RNA oligos were used at the wavelengths 576/615 (excitation/emission). Fluorescence measurements were taken every 5 minutes.
(§2) For exemplary SPRINT assays, a master mix was first prepared and then mixed with the remaining reaction reagent components to yield a final reaction volume of 30 μL; fluorescent readings of the entire reaction volume were performed in Corning 384 Flat Bottom Black Polystyrol plates. This master mix (SPRINT buffer, 10×), for assays contemplated herein can include, but is not limited to: 700 mM Tris-HCl, pH 8.0, 700 mM NaCl, 1 mM EDTA, 140 mM β-mercaptoethanol, and 25 mM MgCl2. Aliquots of an exemplary 10× SPRINT buffer were stored at −20° C. and not allowed to undergo more than 10 freeze-thaw cycles.
Initially, the observed ligand-dependent induction of the FMN riboswitch was very low. To improve this, the magnesium concentration in the SPRINT reaction was increased. […] Therefore, SPRINT reactions with the ribD/pbuE*7U riboswitch were conducted at 10 mM MgCl2 in these exemplary studies.

Assay [6] deals with serotonin riboswitch (P1 aptamer in expression platform pbuE′). Nature of the assay: SPRINT assay with synthetic serotonin riboswitch. The format is biochemical. The conditions noted are these: FIG. 4D. The protocol: as §1, §2
(§3) The SELEX method (previously described) has been used to select the P1 aptamer that binds to the neurotransmitter serotonin (i.e. 5-hydroxytryptamine) and this aptamer was incorporated into the expression platform pbuE′ to generate a riboswitch for serotonin.

The test system of assay [7] is transcription and Cas13 reaction. Kind of assay: Effect of agents on fluorescent signal of one-batch and two-batch assays. It is filed as biochemical. The conditions noted are these: FIGS. 6D-6F. Here is the method:
In another exemplary method, two-batch methods included, 30 μL in vitro transcription reactions carried out as described above but without addition of Cas13a, crRNA, labeled RNA oligos, RNase inhibitor. Then, the reaction was washed three times with 500 μL ddH2O using an centrifugal filter (0.5 ml, 10 kDa cutoff). After concentrating the solution to approximately 20 μL, aliquots of 6 μL were taken and added to a 24 μL of a SHERLOCK reaction (described below).
as §3

The subject of assay [8] is adenine riboswitch pbuE/pbuE‡. Kind of assay: SPRINT assay with adenine riboswitch. The conditions noted are these: FIG. 3D. It is filed as biochemical. The protocol:
as §1
For exemplary SPRINT assays, a master mix was first prepared and then mixed with the remaining reaction reagent components to yield a final reaction volume of 30 μL; fluorescent readings of the entire reaction volume were performed in Corning 384 Flat Bottom Black Polystyrol plates. This master mix (SPRINT buffer, 10×), for assays contemplated herein can include, but is not limited to: 700 mM Tris-HCl, pH 8.0, 700 mM NaCl, 1 mM EDTA, 140 mM β-mercaptoethanol, and 25 mM MgCl2. […]
The transcriptional response of the well-characterized guanine riboswitch xpt/pbuE*6U and the adenine-responsive riboswitch pbuE/pbuE‡ to their respective ligand was measured by SPRINT and the radiolabeling method. The radiolabeling method used ^32P-labeled ATP for single turnover transcription assays, subsequent separation of the transcripts on an acrylamide gel, exposure to a phospho screen and quantification of the band intensities. […]

In a further assay the test system is FMN riboswitch ribB. Conditions: E. coli ribB; cited from earlier work.
A further assay deals with FMN riboswitch. The conditions noted are these: cited from earlier work.

As for `O=c1[nH]cnc2c([C@@H]3N[C@H](CO)[C@@H](O)[C@H]3O)c[nH]c12` [Immucillin-H], the “effect on hPNP enzymatic activity” value in assay [1] (inhibitor at 100-fold lower concentration than substrate inosine, FIG. 9E) is “significant reduction in the enzymatic activity”. For `[Zn+2]` [zinc], the EC50 in assay [2] turned out to be 4.8 ± 0.3 µM. For the same compound, the “selectivity versus control copper” value in assay [2] (FIG. 7C) is recorded as “high selectivity”. Turning to `CNc1nc2nc[nH]c2c(=O)[nH]1` [N2-methylguanine], in assay [3], the “transcriptional response at low and high concentration” value (shortened to “transcriptional response”) is recorded as “only caused a strong transcriptional response at high concentrations”. The “interference with SPRINT assay (PAINS)” value in assay [4] was “interfering compounds”.

Consider `Nc1nc2c(c(=O)[nH]1)CC=N2` [7-deazaguanine], for which, in assay [3], the “transcriptional response” value is recorded as “some activation of transcription at low concentrations but no or reduced activation at high concentrations”. In assay [4], the “interference with SPRINT assay (PAINS)” value is listed as “interfering compounds”. In the case of `Cc1cc2nc3c(=O)[nH]c(=O)nc-3n(C[C@H](O)[C@H](O)[C@H](O)COP(=O)(O)O)c2cc1C` [FMN, flavin mononucleotide], in assay [5] (read-out: T50 value (ligand concentration at half-maximal activation of transcription)), the EC50 is around 1.01 µM. Turning to `Cc1cc2nc3c(=O)[nH]c(=O)nc-3n(C[C@H](O)[C@H](O)[C@H](O)COP(=O)(O)OP(=O)(O)OC[C@H]3O[C@@H](n4cnc5c(N)ncnc54)[C@H](O)[C@@H]3O)c2cc1C` [flavin adenine dinucleotide (FAD), flavin adenine dinucleotide], the “response / activation of FMN riboswitch” value in [5] is “low-affinity response”. For `NCCc1c[nH]c2ccc(O)cc12` [serotonin, 5-hydroxytryptamine], in assay [6] (read-out: T50 value), the EC50 is 5 ± 3 µM. Also, in [7], the “inhibitory effect on transcription and Cas13 reaction” value is “specifically inhibited the transcription and also Cas13 reaction”.

For the compound `NCCc1c[nH]c2ccccc12` [tryptamine], in assay [6], the “discrimination by serotonin riboswitch” value is “discriminated specifically against”.

For `Nc1ncnc2nc[nH]c12` [adenine], the “response of adenine riboswitch to ligand” value in assay [8] is on record as “responded efficiently”. For the compound `N[C@@H](Cc1c[nH]c2ccc(O)cc12)C(=O)O` [5-hydroxytryptophan], in assay [7], the “inhibitory effect on transcription and Cas13 reaction” value was “did not cause inhibitory effects”. `CNc1ncnc2nc[nH]c12` [N6-methyladenine]: the “transcriptional response” value in assay [3] is “did not cause a transcriptional response at low or high concentrations”.

In the case of `Nc1nc2nc[nH]c2c(=O)[nH]1` [guanine], the “response of adenine riboswitch to ligand” value in assay [8] is recorded as “not”. In addition, the “transcriptional response” value in [3] was “equally strong transcriptional activation at low and high concentrations”. For the compound `OC[C@H]1O[C@@H](n2cnc3c(O)ncnc32)[C@H](O)[C@@H]1O` [inosine], in assay [1] (FIG. 9F), the “hypoxanthine production by hPNP on titration” value was “concentration-dependent increase”. With `O=c1cc(-c2cccs2)nc([C@H]2CCCN(Cc3cn(-c4ncccn4)cn3)C2)[nH]1` [ribocil-C], in assay [5], the “response / activation of FMN riboswitch” value is listed as “no observable activation”. Besides, the “agonism of FMN riboswitch ribB” value in the assay with FMN riboswitch ribB is “strong agonist”. The “agonism of FMN riboswitch from F. nucleatum” value with FMN riboswitch is recorded as “strong agonist”.

The record behind these values is patent publication US20230279482A1, “COMPOSITIONS, METHODS AND USES FOR QUANTIFYING TRANSCRIPTION AND BIOSENSING OF SMALL MOLECULES USING A NOVEL TYPE VI CRISPR-CAS ASSAY” (THE REGENTS OF THE UNIVERSITY OF COLORADO, A BODY CORPORATE, priority 2020, published 2023).
